Reference: ChEMBL document CHEMBL1201862, “PubChem BioAssay data set” (2004)
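Where inhibition never reached the appropriate level, the endpoint shown equals the highest concentration tested. Otherwise, values were interpolated linearly from a five-concentration, 48-hour dose response in 96-well plates. At the GI50, growth is halved.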 Active and inactive are the calls of the source. Cut-off read from the data, not from the text of the source: active = GI50 up to about 1.1 µM and inactive = higher.

Legend:
Test in all cases: DTP human tumour cell line panel, 48 h
NCI-H460 = test system: NCI-H460
A498 = test system: A498
OVCAR-3 = test system: OVCAR-3
786-0 = test system: 786-0
SK-MEL-2 = test system: SK-MEL-2
IGROV-1 = test system: IGROV-1
CAKI-1 = test system: CAKI-1
SK-MEL-28 = test system: SK-MEL-28
SNB-75 = test system: SNB-75
COLO 205 = test system: COLO 205
RXF 393 = test system: RXF 393
KM12 = test system: KM12
OVCAR-4 = test system: OVCAR-4
M14 = test system: M14
SR = test system: SR
ACHN = test system: ACHN

Measured: GI50

COc1ccc(/C=C/C(=O)c2sc(-c3cccnc3)nc2C)cc1
inactive: NCI-H460 53.5 µM | A498 > 100 µM | OVCAR-3 24.2 µM | 786-0 41.6 µM | SK-MEL-2 38.4 µM | IGROV-1 60.1 µM | CAKI-1 49.9 µM | SK-MEL-28 94 µM | SNB-75 30.1 µM | COLO 205 48.3 µM | RXF 393 26.3 µM | KM12 15.3 µM

CC1=CC(=O)C(C)(C2=NC(C)(C)CO2)c2ccccc21 (stereo unspecified)
inactive: NCI-H460 > 100 µM | OVCAR-4 > 100 µM | OVCAR-3 > 100 µM | 786-0 > 100 µM | SK-MEL-2 > 100 µM | IGROV-1 > 100 µM | CAKI-1 > 100 µM | SK-MEL-28 > 100 µM | SNB-75 > 100 µM | COLO 205 > 100 µM | M14 > 100 µM | SR > 100 µM | ACHN > 100 µM | RXF 393 > 100 µM | KM12 > 100 µM

Cn1cc(C(=O)C2CCCCC2)ccc1=O
inactive: NCI-H460 > 100 µM | OVCAR-4 > 100 µM | OVCAR-3 > 100 µM | 786-0 > 100 µM | SK-MEL-2 > 100 µM | IGROV-1 > 100 µM | CAKI-1 > 100 µM | SK-MEL-28 > 100 µM | SNB-75 > 100 µM | COLO 205 > 100 µM | M14 > 100 µM | SR > 100 µM | ACHN > 100 µM | RXF 393 > 100 µM | KM12 > 100 µM

O=S1(=O)OCCOS(=O)(=O)C1(Br)Br
inactive: OVCAR-4 > 100 µM | OVCAR-3 > 100 µM | 786-0 > 100 µM | SK-MEL-2 > 100 µM | CAKI-1 > 100 µM | SK-MEL-28 > 100 µM | SNB-75 > 100 µM | COLO 205 > 100 µM | M14 > 100 µM | SR > 100 µM | KM12 > 100 µM

CC(=O)Nc1ccc(C2C(C(=O)Nc3ccccc3)=C(C)NC(C)=C2C(=O)Nc2ccccc2)cc1
inactive: NCI-H460 > 100 µM | A498 > 100 µM | OVCAR-4 > 100 µM | OVCAR-3 > 100 µM | 786-0 > 100 µM | SK-MEL-2 > 100 µM | IGROV-1 > 100 µM | CAKI-1 > 100 µM | SK-MEL-28 > 100 µM | SNB-75 > 100 µM | COLO 205 > 100 µM | M14 > 100 µM | ACHN > 100 µM | RXF 393 > 100 µM | KM12 > 100 µM

O=C1C2C(C(=O)N1c1ccccc1)C1c3ccccc3C2C2C(=O)N(c3ccccc3)C(=O)C21 (stereo unspecified)
inactive: NCI-H460 3.71 µM | A498 6.71 µM | OVCAR-4 22.8 µM | OVCAR-3 20.7 µM | 786-0 3.89 µM | SK-MEL-2 2.54 µM | IGROV-1 > 100 µM | CAKI-1 11.3 µM | SK-MEL-28 26.2 µM | SNB-75 3.73 µM | COLO 205 3.89 µM | M14 2.85 µM | ACHN 6.47 µM | RXF 393 6.04 µM | KM12 6.1 µM

O=C1C2=C(c3ccccc31)C(c1ccccc1Cl)NC(S)=N2 (stereo unspecified)
inactive: NCI-H460 72.8 µM | A498 61.8 µM | OVCAR-4 35.6 µM | OVCAR-3 38.1 µM | 786-0 > 100 µM | SK-MEL-2 29.1 µM | IGROV-1 56.8 µM | CAKI-1 38.2 µM | SK-MEL-28 55.5 µM | SNB-75 26.9 µM | COLO 205 69.3 µM | M14 51.8 µM | ACHN 41.8 µM | KM12 44.5 µM

COC(=O)c1oc([N+](=O)[O-])c(-c2ccccc2)c1-c1ccccc1
inactive: NCI-H460 > 100 µM | A498 > 100 µM | OVCAR-4 > 100 µM | OVCAR-3 > 100 µM | 786-0 > 100 µM | SK-MEL-2 > 100 µM | IGROV-1 > 100 µM | CAKI-1 > 100 µM | SK-MEL-28 > 100 µM | SNB-75 > 100 µM | COLO 205 37.7 µM | M14 > 100 µM | ACHN > 100 µM | KM12 > 100 µM
